Laboratory results: US9763445B2, “Safened herbicidal compositions comprising a pyridine carboxylic acid herbicide” (Dow AgroSciences, LLC, priority 2014, dated 2017)

How the values were obtained:
spring barley (HORVS) = assay: Postemergence greenhouse trial, % visual injury on spring barley; type: in vivo, Hordeum vulgare; conditions: alone
Summary of the method: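 Greenhouse crops at second to third true leaf stage sprayed postemergence at 187 L/ha with herbicide (g ae/ha) plus safener (g ai/ha) in acetone/DMSO diluted into 1.5% v/v Agri-dex. Injury scored visually versus solvent-blank controls after 20-22 d, 0 (none) to 100% (complete kill); expected mixture effects by Colby's equation.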

pigweed (AMARE) = assay: Postemergence greenhouse trial, % visual injury on pigweed; type: in vivo, Amaranthus retroflexus; conditions: for % visual injury, observed (Ob): AMARE
Summary of the method: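 Injury was scored visually (0 = none, 100 = complete kill) 20–22 d after track-sprayer application at 187 L/ha, compared with solvent-sprayed controls. Test plants at the 2–3 true leaf stage; herbicide (g ae/ha) plus cloquintocet-mexyl safener (g ai/ha) in crop-oil-containing spray; expected mixture response by Colby.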

thistle (CIRAR) = assay: Postemergence greenhouse trial, % visual injury on thistle; type: in vivo, Cirsium arvense; conditions: Cirsium arvense, post-emergence, alone, read-out: % visual injury, Ob
Summary of the method: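 Visual injury, 0 (none) to 100 (complete kill), rated 20-22 d after overhead track-sprayer application at 187 L/ha; Colby's equation gave expected mixture responses. Herbicide (g ae/ha) and cloquintocet-mexyl safener (g ai/ha) diluted in aqueous 1.5% v/v Agri-dex, applied to weeds at 2–3 true leaves.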

[1] = test system: purple deadnettle (LAMPU); assay: Postemergence greenhouse trial, % visual injury on purple deadnettle; type: in vivo, Lamium purpureum; conditions: alone
Summary of the method: (§1)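 Herbicide rates g ae/ha, safener (cloquintocet-mexyl) rates g ai/ha; spray carrier 1.5% v/v crop oil concentrate, 187 L/ha, 2nd–3rd leaf stage. Rating: visual % injury at 20-22 d.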

common poppy (PAPRH) = assay: Postemergence greenhouse trial, % visual injury on common poppy; type: in vivo, Papaver rhoeas; conditions: Papaver rhoeas, post-emergence, alone, read-out: % visual injury, Ob
Summary of the method: as §1

Russian thistle (SASKR) = assay: Postemergence greenhouse trial, % visual injury on Russian thistle; type: in vivo, Salsola kali; conditions: alone
[2] = test system: bird's-eye speedwell (VERPE); assay: Postemergence greenhouse trial, % visual injury on bird's-eye speedwell; type: in vivo, Veronica persica; conditions: alone
Summary of the method: as §1

Nc1c(F)c(-c2ccc3cc[nH]c3c2F)nc(C(=O)O)c1Cl [compound 1]
% visual injury, Ob (spring barley (HORVS); 4.375 g/ha): 13%
% visual injury, Ob (spring barley (HORVS); 8.75 g/ha): 13%
% visual injury, Ob (spring barley (HORVS); 17.5 g/ha): 24%
% visual injury, Ob (spring barley (HORVS); 35 g/ha): 32%
% visual injury, Ob (spring barley (HORVS); 70 g/ha): 41%
% visual injury, observed (Ob) (pigweed (AMARE); compound 1 alone 20 g/ha): 100%
% visual injury, observed (Ob) (pigweed (AMARE); compound 1 alone 40 g/ha): 100%
pest or weed control at 4.375 g/ha (pigweed (AMARE); Amaranthus retroflexus, post-emergence, alone, 4.375 g/ha, read-out: % visual injury, Ob): 81%
pest or weed control at 8.75 g/ha (pigweed (AMARE); Amaranthus retroflexus, post-emergence, alone, 8.75 g/ha, read-out: % visual injury, Ob): 91%
pest or weed control at 17.5 g/ha (pigweed (AMARE); Amaranthus retroflexus, post-emergence, alone, 17.5 g/ha, read-out: % visual injury, Ob): 99%
pest or weed control at 35 g/ha (pigweed (AMARE); Amaranthus retroflexus, post-emergence, alone, 35 g/ha, read-out: % visual injury, Ob): 100%
pest or weed control at 70 g/ha (pigweed (AMARE); Amaranthus retroflexus, post-emergence, alone, 70 g/ha, read-out: % visual injury, Ob): 100%
% visual injury, Δ (pigweed (AMARE); alone, 35 g/ha): 0%
pest or weed control at 4.375 g/ha (thistle (CIRAR); 4.375 g/ha): 35%
pest or weed control at 8.75 g/ha (thistle (CIRAR); 8.75 g/ha): 62%
pest or weed control at 17.5 g/ha (thistle (CIRAR); 17.5 g/ha): 80%
pest or weed control at 35 g/ha (thistle (CIRAR); 35 g/ha): 90%
pest or weed control at 70 g/ha (thistle (CIRAR); 70 g/ha): 96%
% visual injury, Ob ([1]; 4.375 g/ha): 76%
% visual injury, Ob ([1]; 8.75 g/ha): 86%
% visual injury, Ob ([1]; 17.5 g/ha): 90%
% visual injury, Ob ([1]; 35 g/ha): 98%
% visual injury, Ob ([1]; 70 g/ha): 100%
pest or weed control at 4.375 g/ha (common poppy (PAPRH); 4.375 g/ha): 97%
pest or weed control at 8.75 g/ha (common poppy (PAPRH); 8.75 g/ha): 99%
pest or weed control at 17.5 g/ha (common poppy (PAPRH); 17.5 g/ha): 100%
pest or weed control at 35 g/ha (common poppy (PAPRH); 35 g/ha): 100%
pest or weed control at 70 g/ha (common poppy (PAPRH); 70 g/ha): 100%
% visual injury, Ob (Russian thistle (SASKR); 4.375 g/ha): 66%
% visual injury, Ob (Russian thistle (SASKR); 8.75 g/ha): 70%
% visual injury, Ob (Russian thistle (SASKR); 17.5 g/ha): 82%
% visual injury, Ob (Russian thistle (SASKR); 35 g/ha): 90%
% visual injury, Ob (Russian thistle (SASKR); 70 g/ha): 91%
% visual injury, Ob ([2]; 4.375 g/ha): 93%
% visual injury, Ob ([2]; 8.75 g/ha): 95%
% visual injury, Ob ([2]; 17.5 g/ha): 98%
% visual injury, Ob ([2]; 35 g/ha): 99%
% visual injury, Ob ([2]; 70 g/ha): 99%
